Experimental data: US10787443B2, “RAF-degrading conjugate compounds” (ZAMBONI CHEM SOLUTIONS INC., priority 2017, dated 2020)

System: GST-Braf kinase domain and biotinylated E3 substrate adapter (VHL/EloB/EloC complex or CRBN318-425)
Assay: Dimerization assay (AlphaScreen/AlphaLisa), RAF/E3 dimerization
Assay type: binding
Conditions: Table 17; relative value; compounds 4 fold serial dilutions from 20 μM

| SMILES | RAF/E3 Dimerization |
| --- | --- |
| Cc1ccc(NC(=O)c2cccc(C(F)(F)F)c2)cc1-c1cnc(OC(C)Cc2cnnn2CCCCCC(=O)Nc2cccc3c2C(=O)N(C2CCC(=O)NC2=O)C3=O)c(N2CCOCC2)c1 (racemic) [Compound 1.011, (±)-N-(3-(6-((1-(1-(6-((2-(2,6-dioxopiperidin-3-yl)-1,3-dioxoisoindolin-4-yl)amino)-6-oxohexyl)-1H-1,2,3-triazol-5-yl)propan-2-yl)oxy)-5-morpholinopyridin-3-yl)-4-methylphenyl)-3-(trifluoromethyl)benzamide] | + (5% > RAF/E3 Dimerization) |
| O=C1CCC(N2C(=O)c3cccc(CCCOCCOCCNC(=O)c4cc(Oc5ccc(NC(=O)Nc6ccc(Cl)c(C(F)(F)F)c6)cc5)ccn4)c3C2=O)C(=O)N1 (stereo not drawn) [Compound 2.030, 4-(4-(3-(4-chloro-3-(trifluoromethyl)phenyl)ureido)phenoxy)-N-(2-(2-(3-(2-(2,6-dioxopiperidin-3-yl)-1,3-dioxoisoindolin-4-yl)propoxy)ethoxy)ethyl)picolinamide] | ++ (25% > RAF/E3 Dimerization ≥ 5%) |
| CCCCCCNC(=O)Nc1cc(-c2cc3cnc(NCCCCc4cn(CCCCCC(=O)N[C@@H](C(=O)N5C[C@H](O)C[C@H]5C(=O)N[C@@H](C)c5ccc(-c6scnc6C)cc5)C(C)(C)C)nn4)nc3nc2C)c(C)cc1F [Compound 2.037, (2S,4R)-1-((R)-2-(6-(4-(4-((6-(4-fluoro-5-(3-hexylureido)-2-methylphenyl)-7-methylpyrido[2,3-d]pyrimidin-2-yl)amino)butyl)-1H-1,2,3-triazol-1-yl)hexanamido)-3,3-dimethylbutanoyl)-4-hydroxy-N—((S)-1-(4-(4-methylthiazol-5-yl)phenyl)ethyl)pyrrolidine-2-carboxamide] | ++++ (75% > RAF/E3 Dimerization ≥ 50%) |
| CNc1ncc2cc(-c3cc(NC(=O)NCCOCCOCC(=O)N[C@@H](C(=O)N4C[C@H](O)C[C@H]4C(=O)N[C@@H](C)c4ccc(-c5scnc5C)cc4)C(C)(C)C)c(F)cc3C)c(C)nc2n1 [Compound 2.042, (2S,4R)-1-((R)-12-(tert-butyl)-1-((2-fluoro-4-methyl-5-(7-methyl-2-(methylamino)pyrido[2,3-d]pyrimidin-6-yl)phenyl)amino)-1,10-dioxo-5,8-dioxa-2,11-diazatridecan-13-oyl)-4-hydroxy-N—((S)-1-(4-(4-methylthiazol-5-yl)phenyl)ethyl)pyrrolidine-2-carboxamide] | + (5% > RAF/E3 Dimerization) |
| Cc1ncc(NC(=O)c2cccc(C(F)(F)F)c2)cc1-c1cnc(OCCOCCOCC(=O)NCCOCCCc2cccc3c2CN(C2CCC(=O)NC2=O)C3=O)c(N2CCOCC2)c1 (stereo not drawn) [Compound 2.019, N-(6′-((15-(2-(2,6-dioxopiperidin-3-yl)-1-oxoisoindolin-4-yl)-8-oxo-3,6,12-trioxa-9-azapentadecyl)oxy)-2-methyl-5′-morpholino-[3,3′-bipyridin]-5-yl)-3-(trifluoromethyl)benzamide] | +++ (50% > RAF/E3 Dimerization ≥ 25) |
| CC(NC(=O)c1ncnc(NCc2cn(CCCCCC(=O)Nc3cccc4c3C(=O)N(C3CCC(=O)NC3=O)C4=O)nn2)c1Cl)c1ncc(C(=O)Nc2cc(C(F)(F)F)c(Cl)cn2)s1 (stereo not drawn) [Compound 2.044, N-(5-chloro-4-(trifluoromethyl)pyridin-2-yl)-2-(1-(5-chloro-6-(((1-(6-((2-(2,6-dioxopiperidin-3-yl)-1,3-dioxoisoindolin-4-yl)amino)-6-oxohexyl)-H-1,2,3-triazol-4-yl)methyl)amino)pyrimidine-4-carboxamido)ethyl)thiazole-5-carboxamide] | + (5% > RAF/E3 Dimerization) |
